# In patent US6281352:
# Read-outs that look alike come from different tables or passages of the source.
compound,measurement,setting,value
COC(=O)[C@@H]1Cc2ccc(cc2)OCCC[C@H](C(=O)OC(C)(C)C)[C@@H](CC(C)C)C(=O)N1,"ring closure, yield of all isomers","from COC(=O)[C@H](Cc1ccc(O)cc1)NC(=O)[C@H](CC(C)C)[C@H](CCCBr)C(=O)OC(C)(C)C, ether bond, Cs2CO3, DMF, 32.8 mM, 80.0 °C, 0.75 h",74%
CNC(=O)[C@@H]1CCCCN(S(=O)(=O)C(F)(F)F)CCC[C@H](C(=O)OC(C)(C)C)[C@@H](CC(C)C)C(=O)N1,"ring closure, yield of all isomers","from CNC(=O)[C@H](CCCCNS(=O)(=O)C(F)(F)F)NC(=O)[C@H](CC(C)C)[C@H](CCCO)C(=O)OC(C)(C)C, amine bond, DIAD/PPh3, THF, 15.6 mM, 16.0 h, 2 steps",52%
CNC(=O)[C@@H]1CCCCNC(=O)CC[C@H](C(=O)OC(C)(C)C)N[C@@H](CCc2ccccc2)C(=O)N1,"ring closure, yield of all isomers","from CNC(=O)[C@@H](N)CCCCNC(=O)CC[C@@H](N[C@@H](CCc1ccccc1)C(=O)O)C(=O)OC(C)(C)C, amide bond, BOP, DMF, 24.0 h",16%
CNC(=O)[C@@H]1CCC(=O)OCCC[C@H](C(=O)OC(C)(C)C)[C@@H](CC(C)C)C(=O)N1,"ring closure, yield of all isomers","from CNC(=O)[C@H](CCC(=O)O)NC(=O)[C@H](CC(C)C)[C@H](CCCO)C(=O)OC(C)(C)C, ester bond, PPh3/DIAD, THF, 9.4 mM, 16.0 h, 2 steps",24%
CNC(=O)[C@@H]1CCCCN(S(=O)(=O)c2ccc([N+](=O)[O-])cc2)CCC[C@H](C(=O)OC(C)(C)C)[C@@H](CC(C)C)C(=O)N1,"ring closure, yield of all isomers","from CNC(=O)[C@H](CCCCNS(=O)(=O)c1ccc([N+](=O)[O-])cc1)NC(=O)[C@H](CC(C)C)[C@H](CCCO)C(=O)OC(C)(C)C, amine bond, PPh3/DIAD, THF, 24.7 mM",26%
COC(=O)[C@@H]1CCCc2ccc(cc2)OCCC[C@H](C(=O)OC(C)(C)C)[C@@H](CC(C)C)C(=O)N1,"ring closure, yield of all isomers","from COC(=O)[C@H](CCCc1ccc(O)cc1)NC(=O)[C@H](CC(C)C)[C@H](CCCBr)C(=O)OC(C)(C)C, ether bond, Cs2CO3, DMF, 8.7 mM, 0.0 °C, 2.0 h",32%
C=C1CO[C@H](COCc2ccccc2)[C@@H](C/C=C/c2ccccc2)C(=O)N[C@H](C(=O)NC)CCCN(C(C)=O)C1,"ring closure, yield of all isomers","from C=C(CBr)CO[C@H](COCc1ccccc1)[C@@H](C/C=C/c1ccccc1)C(=O)N[C@@H](CCCN)C(=O)NC, amine bond, diisopropylethylamine, acetonitrile, 2.1 mM, 3 steps",76%
CNC(=O)[C@@H]1CCCCNC(=O)C[C@H](C(=O)OC(C)(C)C)N[C@@H](CCc2ccccc2)C(=O)N1,"ring closure, yield of all isomers","from CNC(=O)[C@@H](N)CCCCNC(=O)C[C@@H](N[C@@H](CCc1ccccc1)C(=O)O)C(=O)OC(C)(C)C, amide bond, BOP, DMF, 24.0 h, 2 steps",30%
CNC(=O)[C@@H]1CCCCN(S(=O)(=O)c2c(C)cc(C)cc2C)CCC[C@H](C(=O)OC(C)(C)C)[C@@H](CC(C)C)C(=O)N1,"ring closure, yield of all isomers","from CNC(=O)[C@H](CCCCNS(=O)(=O)c1c(C)cc(C)cc1C)NC(=O)[C@H](CC(C)C)[C@H](CCCO)C(=O)OC(C)(C)C, amine bond, PPh3/DIAD, THF, 21.5 mM, 16.0 h, 2 steps",30%
CNC(=O)[C@@H]1CCCCN(S(=O)(=O)c2cn(C)cn2)CCC[C@H](C(=O)OC(C)(C)C)[C@@H](CC(C)C)C(=O)N1,"ring closure, yield of all isomers","from CNC(=O)[C@H](CCCCNS(=O)(=O)c1cn(C)cn1)NC(=O)[C@H](CC(C)C)[C@H](CCCO)C(=O)OC(C)(C)C, amine bond, PPh3/DIAD, THF, 17.1 mM, 16.0 h",52%
